Assay results as given in article PMC5118774 (Frontiers in Pharmacology, 2016).
Entries after “also recorded” stand apart in the source; their conditions may differ.

Test system: mice exposed to unpredictable chronic mild stress (UCMS)
Assay: Novelty suppressed feeding test after UCMS
Type: in vivo, C57BL/6J mice
Source text: Mice underwent between 6 and 8 weeks of UCMS (see Supplementary Table S1 for example UCMS schedule). Animals were exposed to 2–3 mild stressors each day throughout the light/dark cycle, including wet bedding, brief restraint, forced bath, no bedding, reduced space, and predator odor over a period of several weeks (see details in Supplementary Material) ([Edgar et al., 2011]; [Lin and Sibille, 2015]). Female mice were housed 5 per cage, and male mice were housed 4 per cage in Optimice cages (Animal Care Systems Inc, Centennial, CO, USA). In experiment 3.4, UCMS was augmented with single-cage isolation housing in male mice beginning at the fourth week of UCMS until sacrifice. A timeline of experimental procedures can be found in Figure 2A (including timeline of the sections “ Drug Treatment” and “Behavioral Testing”).
At the start of the third week of UCMS and continuing for between 28 and 42 days (including time for behavioral tests, see “Behavioral Testing”) until sacrifice, mice received daily i.p injections of vehicle (85% ddH2O, 14% propylene glycol, 1% Tween 80) or 30 mg/kg SH-053-2’F-R-CH3 (α5-PAM; synthesized in the laboratory of Dr. James M. Cook) in a volume of […]. All animals received a single daily injection (chronic α5-PAM treated mice received SH-053-2’F-R-CH3, acute α5-PAM and vehicle treated animals received vehicle injections) between 8:00AM and 9:00AM until the start of behavioral testing. After 3 weeks of treatment, all mice began receiving a second injection 30 min prior to behavioral testing. All animals received a second injection of either vehicle (for chronic α5-PAM treated animals and UCMS-vehicle treated animals) or α5-PAM acutely (α5-PAM acute animals). All injections were performed using ultra-fine insulin syringes (31 gauge, 6 mm; Becton, Dickinson and Company, Franklin Lakes, NJ, USA).
After 5 weeks of UCMS, including 3 weeks of drug treatment, animals were assessed in a battery of behavioral tests (each test separated by 48 h, UCMS continued throughout behavioral testing for a period of 1–3 weeks). These tests included: Elevated plus maze: under red light, animals were placed on a plus maze with two open and two closed arms (30 cm × 5 cm). Number of entries into all arms as well as the time spent in the open arms was recorded for 10 min. Open field test: The open field test was conducted in a 43 cm ×43 cm arena under bright (800 lux) light. Using AnyMaze software (Stoelting, Wood Dale, IL, USA), the center 50% of the arena was identified and animals were tracked for 10 min. Novelty suppressed feeding test: Mice were food deprived for 24 h the day before testing. Testing occurred in brightly lit (∼1000 lux) open field arenas covered in bedding. A normal food pellet was placed into the brightly lit center and the latency for an animal to approach and bite the pellet was recorded over a 12 min session. Immediately following the session, animals were placed into their home cage and allowed to eat a weighed food pellet to assess hunger drive. Cookie test: The cookie test apparatus contains three identically sized chambers (40 cm × 20 cm × 20 cm) separated by two offset dividers. The outer walls of each chamber were clear and the only difference between each was the color of the divider, with one divider shaded white and the other black. One week prior to experimentation, mice were habituated in their home cage to a piece (2 ± 1 g) of Keebler Fudge Stripe Cookie (Kellogg’s Company, Battle Creek, MI, USA). On the first and second day of testing, a piece of cookie (2 ± 1 g) was placed into the chamber separated by the black divider. Mice were then placed into the opposing chamber separated by the white divider and monitored for 10 min. The latency for each mouse to bite the cookie was recorded. […]

C#Cc1ccc2c(c1)C(c1ccccc1F)=N[C@H](C)c1c(C(=O)OCC)ncn1-2 [α5-PAM]
NSF latency to bite food pellet (female UCMS mice, acute 30 mg/kg i.p. 30 min before test, vs UCMS-vehicle, first cohort (Figure 2)): reduced the latency to bite; also recorded: reducing latency to bite
NSF latency to bite food pellet (female UCMS mice, acute treatment, vs UCMS-vehicle, second cohort (Figure 3)): reduces; also recorded: reduced the latency to bite
NSF latency to bite food pellet (female UCMS mice, chronic 30 mg/kg i.p., vs UCMS-vehicle, first cohort (Figure 2)): reduced the latency to bite; also recorded: reducing latency to bite
NSF latency to bite food pellet (female UCMS mice, chronic treatment, vs UCMS-vehicle, second cohort (Figure 3)): reduces; also recorded: reduced the latency to bite
NSF, stress-induced behavior (male UCMS mice, 37.5 mg/kg acute or chronic (Figure 4B), 37.5 mg/kg): No change; also recorded: failed to reduce
NSF latency to bite food pellet (male UCMS mice, acute or chronic 30 mg/kg i.p., first cohort (Figure 2)): no effect
NSF, UCMS-induced behavioral phenotype (male mice, UCMS plus single housing, chronic treatment (Figure 4A)): did not alter; also recorded: No significant effect
